Test results published in ChEMBL document CHEMBL5154803, “Spermine-Conjugated Short Proline-Rich Lipopeptides as Broad-Spectrum Intracellular Targeting Antibacterial Agents” (J Med Chem, 2022).
≈ marks a conversion by molar mass, not a printed value. Calls of active or inactive are those of the source. The rule behind the calls is not given here. Where a SMILES comes first, the peptide text is derived from it. The star is where a group is joined. Myristoyl = CCCCCCCCCCCCCC(=O)*; Decanoyl = CCCCCCCCCC(=O)*; Spermine = NCCCNCCCCNCCCN*

Experiments:
[1] = tested on: Staphylococcus epidermidis; experiment: Antibacterial activity against Staphylococcus epidermidis ATCC 12228 assessed as reduction in bacterial growth measured after 18 hrs by broth microdilution method; type: functional
Escherichia coli [2] = experiment: Antibacterial activity against Escherichia coli ATCC 25922 assessed as reduction in bacterial growth measured after 18 hrs by broth microdilution method; type: functional
Staphylococcus aureus [3] = experiment: Antibacterial activity against MDR-methicillin-resistant Staphylococcus aureus ATCC BAA-44 assessed as reduction in bacterial growth measured after 18 hrs by broth microdilution method; type: functional
Staphylococcus aureus [4] = experiment: Antibacterial activity against Staphylococcus aureus ATCC 25923 assessed as reduction in bacterial growth measured after 18 hrs by broth microdilution method; type: functional
Pseudomonas aeruginosa = experiment: Antibacterial activity against Pseudomonas aeruginosa ATCC BAA-427 assessed as reduction in bacterial growth measured after 18 hrs by broth microdilution method; type: functional
Acinetobacter baumannii = experiment: Antibacterial activity against Acinetobacter baumannii i ATCC 19606 assessed as reduction in bacterial growth measured after 18 hrs by broth microdilution method; type: functional
[5] = tested on: Staphylococcus epidermidis; experiment: Antibacterial activity against methicillin-resistant Staphylococcus epidermidis ATCC 51625 assessed as reduction in bacterial growth measured after 18 hrs by broth microdilution method; type: functional
Staphylococcus aureus [6] = experiment: Antibacterial activity against methicillin-resistant Staphylococcus aureus ATCC 33591 assessed as reduction in bacterial growth measured after 18 hrs by broth microdilution method; type: functional
Staphylococcus aureus [7] = experiment: In vivo antibacterial activity against Staphylococcus aureus ATCC 25923 infected in BALB/c mouse model assessed as reduction of bacterial load in kidney at 100 mg/kg, ip administered as single dose measured after 24 hrs by colony counting based analysis; type: functional, organism-based
Staphylococcus aureus [8] = experiment: In vivo antibacterial activity against Staphylococcus aureus ATCC 25923 infected in BALB/c mouse model assessed as reduction of bacterial load in spleen at 100 mg/kg, ip administered as single dose measured after 24 hrs by colony counting based analysis; type: functional, organism-based
Staphylococcus aureus [9] = experiment: In vivo antibacterial activity against Staphylococcus aureus ATCC 25923 infected in BALB/c mouse model assessed as reduction of bacterial load in liver at 100 mg/kg, ip administered as single dose measured after 24 hrs by colony counting based analysis; type: functional, organism-based
Erythrocyte = experiment: Hemolytic activity against human RBC assessed as hemolysis upto 100 uM incubated for 1 hr by ELISA plate reader analysis; type: toxicity, cell-based
Escherichia coli [10] = experiment: Antibacterial activity against Escherichia coli ATCC 25922 assessed as reduction in bacterial growth measured after 18 hrs in presence of 10% v/v human serum in MHB by broth microdilution method; type: functional; settings: ATCC 25922, Serum
[11] = Cytotoxicity against human THP-1 cells assessed as cell viability at 50 uM by MTT assay; type: toxicity, cell-based; settings: read-out: Activity
Cell membrane [12] = experiment: Disruption of bacterial cell membrane in Escherichia coli ATCC 25922 at 5XMIC by SEM analysis; type: subcellular
Cell membrane [13] = experiment: Disruption of bacterial cell membrane in Escherichia coli ATCC 25922 assessed as proportion of bacteria with intact cell membrane at 5X MIC incubated for 1 hr by PI staining based flow cytometric analysis (reference value: 99.3%); type: subcellular
Cell membrane [14] = experiment: Disruption of bacterial cell membrane in Escherichia coli ATCC 25922 assessed as proportion of bacteria with damaged cell membrane at 5X MIC incubated for 1 hr by PI staining based flow cytometric analysis (reference value: 0.7%); type: subcellular

Compound	MIC [1] [µM]	MIC (Escherichia coli [2]) [µM]	MIC (Staphylococcus aureus [3]) [µM]	MIC (Staphylococcus aureus [4]) [µM]	MIC (Pseudomonas aeruginosa) [µM]	MIC (Acinetobacter baumannii) [µM]	MIC [5] [µM]	MIC (Staphylococcus aureus [6]) [µM]	other results
CCCCCCCCCC(=O)N1CCC[C@H]1C(=O)N[C@@H](CCCNC(=N)N)C(=O)N1CCC[C@H]1C(=O)N[C@@H](CCCNC(=N)N)C(=O)N1CCC[C@H]1C(=O)N1CCC[C@H]1C(=O)N[C@@H](CCCNC(=N)N)C(=O)O (Decanoyl-PRPRPPR-OH)	> 200	> 200	> 200	> 200	> 200	> 200	> 200	> 200	–
H-PRPRPPR-OH	> 200	> 200	> 200	> 200	> 200	> 200	> 200	> 200	–
C[C@H]1COc2c(N3CCN(C)CC3)c(F)cc3c(=O)c(C(=O)O)cn1c23	–	–	–	–	–	–	–	–	Activity (Staphylococcus aureus [7]): Active; Activity (Staphylococcus aureus [8]): Active; Activity (Staphylococcus aureus [9]): Active
N=C(N)NCCC[C@H](NC(=O)[C@@H]1CCCN1C(=O)[C@@H]1CCCN1C(=O)[C@H](CCCNC(=N)N)NC(=O)[C@@H]1CCCN1C(=O)[C@H](CCCNC(=N)N)NC(=O)[C@@H]1CCCN1)C(=O)NCCCNCCCCNCCCN (H-PRPRPPR-Spermine)	> 200	> 200	> 200	200 (≈ 212 µg/mL)	> 200	> 200	> 200	> 200	–
CCCCCCCCCCCCCC(=O)N1CCC[C@H]1C(=O)N[C@@H](CCCNC(=N)N)C(=O)N1CCC[C@H]1C(=O)N[C@@H](CCCNC(=N)N)C(=O)N1CCC[C@H]1C(=O)N1CCC[C@H]1C(=O)N[C@@H](CCCNC(=N)N)C(=O)NCCCNCCCCNCCCN (Myristoyl-PRPRPPR-Spermine)	1.5 (≈ 1.9 µg/mL)	3.1 (≈ 3.94 µg/mL)	1.5 (≈ 1.9 µg/mL)	3.1 (≈ 3.94 µg/mL)	6.2 (≈ 7.87 µg/mL)	6.2 (≈ 7.87 µg/mL)	1.5 (≈ 1.9 µg/mL)	1.5 (≈ 1.9 µg/mL)	Activity (Erythrocyte): Toxic; MIC (Escherichia coli [10]): 3.1 µM; viability at 50 µM [11]: 40%
CN[C@H](CC(C)C)C(=O)N[C@H]1C(=O)N[C@@H](CC(N)=O)C(=O)N[C@H]2C(=O)N[C@H]3C(=O)N[C@H](C(=O)N[C@H](C(=O)O)c4cc(O)cc(O)c4-c4cc3ccc4O)[C@H](O)c3ccc(c(Cl)c3)Oc3cc2cc(c3O[C@@H]2O[C@H](CO)[C@@H](O)[C@H](O)[C@H]2O[C@H]2C[C@](C)(N)[C@H](O)[C@H](C)O2)Oc2ccc(cc2Cl)[C@H]1O [VANCOMYCIN]	0.4 (≈ 0.58 µg/mL)	200 (≈ 290 µg/mL)	0.8 (≈ 1.16 µg/mL)	0.4 (≈ 0.58 µg/mL)	–	56.8 (≈ 82.3 µg/mL)	0.8 (≈ 1.16 µg/mL)	0.8 (≈ 1.16 µg/mL)	–
CCCCCCCCCCCC(=O)NCCCNCCCCNCCCN	> 200	> 200	> 200	> 200	> 200	> 200	> 200	> 200	–
O=C(N[C@H](CO)[C@H](O)c1ccc([N+](=O)[O-])cc1)C(Cl)Cl [CHLORAMPHENICOL]	–	–	1000 (≈ 323 µg/mL)	–	–	–	–	–	–
GENTAMICIN	–	–	2.5	–	–	–	–	–	–
CC[C@H](C)[C@H](NC(=O)CN)C(=O)NCC(=O)N[C@@H](C)C(=O)N[C@H](C(=O)N[C@@H](CC(C)C)C(=O)N[C@@H](CCCCN)C(=O)N[C@H](C(=O)N[C@@H](CC(C)C)C(=O)N[C@H](C(=O)N[C@H](C(=O)NCC(=O)N[C@@H](CC(C)C)C(=O)N1CCC[C@H]1C(=O)N[C@@H](C)C(=O)N[C@@H](CC(C)C)C(=O)N[C@H](C(=O)N[C@@H](CO)C(=O)N[C@@H](Cc1c[nH]c2ccccc12)C(=O)N[C@H](C(=O)N[C@@H](CCCCN)C(=O)N[C@@H](CCCNC(=N)N)C(=O)N[C@@H](CCCCN)C(=O)N[C@@H](CCCNC(=N)N)C(=O)N[C@@H](CCC(N)=O)C(=O)N[C@@H](CCC(N)=O)C(N)=O)[C@@H](C)CC)[C@@H](C)CC)[C@@H](C)O)[C@@H](C)O)C(C)C)C(C)C	–	–	–	–	–	–	–	–	Activity (Cell membrane [12]): Active; Activity (Cell membrane [13]): 36%; Activity (Cell membrane [14]): 64%
CO[C@H]1/C=C/O[C@@]2(C)Oc3c(C)c(O)c4c(O)c(c(/C=N/N5CCN(C)CC5)c(O)c4c3C2=O)NC(=O)/C(C)=C\C=C\[C@H](C)[C@H](O)[C@@H](C)[C@@H](O)[C@@H](C)[C@H](OC(C)=O)[C@@H]1C [RIFAMPIN]	–	–	1.25 (≈ 1.03 µg/mL)	–	–	–	–	–	–
NC[C@@H]1O[C@H](O[C@H]2[C@@H](O)[C@H](O[C@@H]3[C@@H](O)[C@H](N)C[C@H](N)[C@H]3O[C@H]3O[C@H](CN)[C@@H](O)[C@H](O)[C@H]3N)O[C@@H]2CO)[C@H](N)[C@@H](O)[C@@H]1O [FRAMYCETIN]	–	–	125 (≈ 76.8 µg/mL)	–	–	–	–	–	–
CC1(C)S[C@@H]2[C@H](NC(=O)[C@H](N)c3ccccc3)C(=O)N2[C@H]1C(=O)O [AMPICILLIN]	–	–	125 (≈ 43.7 µg/mL)	–	–	–	–	–	–
CN(C)[C@@H]1C(O)=C(C(N)=O)C(=O)[C@@]2(O)C(O)=C3C(=O)c4c(O)cccc4[C@@](C)(O)[C@H]3C[C@@H]12 [TETRACYCLINE]	–	–	62.5 (≈ 27.8 µg/mL)	–	–	–	–	–	–
CCCCCCCCCC(=O)NCCCNCCCCNCCCN	> 200	> 200	> 200	> 200	> 200	> 200	> 200	> 200	–
